Where two headings read alike, the source gives them in different places.
How the values were obtained:
[1] = tested on: Plasmodium berghei (Pb-Luc) exoerythrocytic-stage parasites; test: microbe, parasite or virus in culture
HepG2-A16-CD81EGFP cells = test: cells; details: Homo sapiens; for IC50: HepG2, read-out: Tox IC50; for inhibition at 50 µM: HepG2, read-out: Tox max inhibition (%) @ 50 uM
[2] = read-out: Inhibition% @ 50 uM rep1
[3] = read-out: Inhibition% @ 50 uM rep2
[4] = read-out: PbLuc IC50, dose response, 1/3 dilutions, max conc. 10 or 50 uM, unit inferred
[5] = read-out: PbLuc max inhibition (%) @ 50 uM
[6] = HepG2, read-out: HepG2 Tox% @ 50 uM rep1
[7] = HepG2, read-out: HepG2 Tox% @ 50 uM rep2
[8] = read-out: PbLuc IC50, dose response, unit inferred

SMILES	inhibition at 50 µM [1, 2]	inhibition at 50 µM [1, 3]	IC50 [1, 4]	inhibition at 50 µM [1, 5]	cytotoxicity at 50 µM (HepG2-A16-CD81EGFP cells; [6])	cytotoxicity at 50 µM (HepG2-A16-CD81EGFP cells; [7])	IC50 (HepG2-A16-CD81EGFP cells)	inhibition at 50 µM (HepG2-A16-CD81EGFP cells)	IC50 [1, 8]
CCN(CC)CCn1c(=N)n(CC(O)c2ccc(Cl)c(Cl)c2)c2ccccc21 (stereo not drawn) [MMV000248]	103%	105%	8.5 µM	99%	101%	102%	27.1 µM	98%	–
Cc1ccc2nc(C)cc(Nc3cccc(C(F)(F)F)c3)c2c1 [MMV000326]	103%	103%	–	–	100%	–	–	–	–
Oc1ccc(Br)cc1CN1CCN(Cc2cccc(F)c2)CC1 [MMV000356]	100%	92%	–	–	64%	–	–	–	–
CC(C)(C)c1ccc2c(c1)CN(Cc1ccc(Cl)cc1)CO2 [MMV000442]	100%	101%	–	–	97%	–	–	–	–
CCCCCCn1c(=N)n(CC(O)COc2cccc(C)c2)c2ccccc21 (stereo not drawn) [MMV000445]	102%	103%	4.75 µM	100%	99%	–	13.7 µM	99%	–
CC(O)(c1ccc(Cl)cc1)C(CN1CCCCC1)c1ccccc1 (stereo not drawn) [MMV000620]	101%	102%	–	–	63%	90%	–	–	–
COc1ccc(NC(=O)C2c3ccccc3C(=O)N(CC(C)C)C2c2cccs2)cc1Cl (stereo not drawn) [MMV000642]	104%	106%	17 µM	97%	50%	30%	> 50 µM	24%	–
COc1ccc(NC(=O)C2c3ccccc3C(=O)N(CC(C)C)C2c2cccs2)cc1 (stereo not drawn) [MMV000662]	102%	106%	17.5 µM	98%	37%	50%	> 50 µM	37%	–
Cc1ccc(C2CC(C(F)(F)F)n3nc(C(=O)N4CCN(C(c5ccccc5)c5ccccc5)CC4)cc3N2)cc1 (stereo not drawn) [MMV000699]	102%	101%	–	–	49%	–	–	–	–
CCOC(=O)c1cnc2ccc(OC)cc2c1Nc1ccc(N2CCN(C)CC2)cc1 [MMV000704]	101%	102%	–	–	97%	–	–	–	–
Cc1ccnc(NC(c2cccc(OCc3ccccc3)c2)c2ccc3cccnc3c2O)c1 (stereo not drawn) [MMV000720]	103%	103%	1.28 µM	100%	99%	–	5.05 µM	99%	–
Oc1ccc(-c2nc(-c3ccc4oc5ccc(-c6[nH]c(-c7ccc(O)cc7)nc6-c6ccccc6)cc5c4c3)c(-c3ccccc3)[nH]2)cc1 [MMV000753]	104%	104%	5.88 µM	99%	101%	–	> 50 µM	39%	–
Oc1c(CN2CCN(c3ccccc3F)CC2)cc(Br)c2cccnc12 [MMV000760]	102%	101%	1.84 µM	93%	95%	–	11.5 µM	78%	–
CCCOCc1cc(CN2CCN(c3cccc(Cl)c3)CC2)c(O)c2ncccc12 [MMV000787]	100%	100%	0.94 µM	101%	93%	–	3.49 µM	100%	–
CC(C)OCc1cc(CN2CCN(c3cccc(Cl)c3)CC2)c(O)c2ncccc12 [MMV000788]	103%	106%	0.99 µM	101%	99%	100%	3.01 µM	94%	–
Cc1ccc(NC(=O)Nc2cccc(Cl)c2)cc1F [MMV000911]	104%	105%	–	–	85%	89%	–	–	–
CC(C)c1ccc(CNCC(O)c2ccccc2)cc1 (stereo not drawn) [MMV001049]	100%	102%	–	–	96%	97%	–	–	–
CC1CC(C)CN(C(=O)c2ccc(Cl)cc2Cl)C1 (stereo not drawn) [MMV001344]	98%	98%	–	–	74%	88%	–	–	–
CCN(CC)CCNc1ccnc2cc(Cl)ccc12 [MMV006087]	101%	103%	–	–	53%	87%	–	–	–
c1ccc(CNc2nc(Nc3ccccc3)nc3ccccc23)cc1 [MMV006169]	103%	104%	–	–	101%	–	–	–	–

SMILES	inhibition at 50 µM [1, 2]	inhibition at 50 µM [1, 3]	IC50 [1, 4]	inhibition at 50 µM [1, 5]	cytotoxicity at 50 µM (HepG2-A16-CD81EGFP cells; [6])	cytotoxicity at 50 µM (HepG2-A16-CD81EGFP cells; [7])	IC50 (HepG2-A16-CD81EGFP cells)	inhibition at 50 µM (HepG2-A16-CD81EGFP cells)	IC50 [1, 8]
CN1CCN(c2ccc(Nc3c4ccccc4nc4ccccc34)cc2)CC1 [MMV006172]	104%	106%	3.44 µM	99%	97%	99%	5.18 µM	94%	–
Cc1cc(NCCN2CCCCC2)c2ccc3ccccc3c2n1 [MMV006203]	99%	101%	–	–	93%	95%	–	–	–
CCN(CC)CCNc1ccnc2cc3ccccc3cc12 [MMV006303]	102%	103%	20.8 µM	98%	99%	–	42.6 µM	92%	–
Cc1cc(Nc2cccc(F)c2)nc(NCc2ccccc2)n1 [MMV006319]	104%	106%	–	–	99%	102%	–	–	–
COc1cc(OC)c(N(C)C(=O)c2cc3c(s2)-c2ccccc2S(=O)(=O)C3)cc1Cl [MMV006427]	99%	102%	11 µM	97%	53%	52%	> 50 µM	39%	–
Cc1cc(NC(=O)C2c3ccccc3C(=O)N(CC(C)C)C2c2cccs2)no1 (stereo not drawn) [MMV006429]	103%	104%	–	96%	15%	18%	> 50 µM	18%	21.4 µM
c1ccc2c(NCCc3c[nH]c4ccccc34)c3ccccc3nc2c1 [MMV006513]	98%	101%	–	–	97%	–	–	–	–
CCN(CC)CCNc1ncnc2c1[nH]c1ccc(Br)cc12 [MMV006545]	104%	106%	–	–	99%	101%	–	–	–
Cc1cc(C)c2c(c1)OCN(Cc1ccccc1Cl)C2 [MMV006558]	104%	105%	–	–	100%	100%	–	–	–
Clc1ccc2[nH]c3c(NCCCN4CCOCC4)ncnc3c2c1 [MMV006587]	101%	100%	–	–	95%	98%	–	–	–
CCOC(=O)C1=CN(C)C=C(C(=O)OCC)C1c1cc(Br)c(OCC)c(OC)c1 [MMV006656]	103%	103%	8.23 µM	99%	50%	–	> 50 µM	31%	–
Cc1cc(=O)oc2c1ccc1oc(C(=O)c3ccccc3)c(C)c12 [MMV006753]	102%	103%	–	–	37%	–	–	–	–
CC(C)CCNCC(O)Cn1c2ccccc2c2ccccc21 (stereo not drawn) [MMV006787]	103%	103%	9.6 µM	99%	98%	–	30.3 µM	97%	–
c1ccc2cc3c(Nc4ccc(N5CCOCC5)cc4)ccnc3cc2c1 [MMV006861]	103%	105%	–	–	78%	99%	–	–	–
Cc1ccc2c(C)nc(Nc3nc(C)cc(-c4ccccc4)n3)nc2c1 [MMV007041]	103%	103%	–	–	37%	–	–	–	–
CCOc1ccc(CN2CCN(CC(O)COc3ccc(OCC(O)CN4CCN(Cc5ccc(OCC)cc5)CC4)cc3)CC2)cc1 (stereo not drawn) [MMV007092]	103%	104%	12.4 µM	99%	98%	–	41.6 µM	65%	–
c1ccc(C2=Nc3ccccc3N=C(c3ccccc3)c3ccccc32)cc1 [MMV007113]	94%	95%	–	40%	22%	–	> 50 µM	15%	> 50 µM
Cc1cc(Nc2ccc(OCc3ccccc3)cc2)nc2cc(O)ccc12 [MMV007181]	103%	103%	–	–	98%	–	–	–	–
COc1cc(-c2nc(-c3ccc(Sc4ccccc4)cc3)c(-c3ccccc3)[nH]2)cc(OC)c1O [MMV007273]	101%	102%	7.67 µM	100%	89%	–	34.1 µM	82%	–
Cc1ccc(F)cc1NC(=O)c1cc(Cl)ccc1Nc1ccccc1 [MMV007275]	75%	69%	–	–	-8%	–	–	–	–

Source: paper PMC4890880 (ACS infectious diseases, 2016)
